Results: PubChem BioAssay (NCI)
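The compound was tested at five concentrations on cells cultured in 96-well plates, with a 48-hour exposure period. Definition used: TGI = concentration required for complete inhibition of growth.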

How the values were obtained:
Test in all cases: NCI tumour cell line growth inhibition, 48 h
P388 leukemia = tested on: P388 leukemia
P388/ADR leukemia = tested on: P388/ADR leukemia
SN12K1 renal = tested on: SN12K1 renal
RXF-631 renal = tested on: RXF-631 renal

## COc1cc(C)c2c(=O)c3c(oc2c1)C(=O)c1c(O)c(OC)cc(O)c1C3=O
P388 leukemia
  TGI: > 50 µM
P388/ADR leukemia
  TGI: > 50 µM
SN12K1 renal
  TGI: 2.69 µM

## COc1cc2c(cc1Oc1ccc(OC)c3c1CC1c4c(cc(OC)c(OC)c4-3)CCN1C)CC1c3c(cc(OC)c(OC)c3-2)CCN1C (configuration not stated)
P388 leukemia
  TGI: 4.02 µM
P388/ADR leukemia
  TGI: 5.71 µM
SN12K1 renal
  TGI: 2.54 µM

## Nc1nnc(N)n1NC(=O)C(=O)Nc1ccc([N+](=O)[O-])cc1
RXF-631 renal
  TGI: > 100 µM
